Experimental data from patent US20070269384A1, “Use of perfluoroalkyl-containing metal complexes as contrast media for diagnosis of Alzheimer's disease” (priority 2006, published 2007).

Columns and labels:
[1] = Proton relaxivity R1 in bovine plasma (Minispec P 20); type: physicochemical; conditions: in plasma at 40° C., magnetic field strength 0.47 Tesla
Description: As a third criterion for especially suitable MR contrast media, the proton relaxivity (relaxivity) in plasma (R1) at 40° C. and a field strength of 0.47 Tesla is used. The relaxivity, which is indicated in [l/mmol*s], is the quantitative measurement for the shortening of the relaxation time T1 of the protons. For the purpose according to the invention, the relaxivity must be as high as possible and must be >10 l/mmol*s, preferably >13 l/mmol*s, especially preferably >15 l/mmol*s.
The relaxivity R1 [l/mmol*s] of the MR contrast media according to the invention was determined with the Minispec P 20 device of the Bruker Company. The measurements were made at 40° C. and a field strength of 0.47 Tesla. 8 measuring points were recorded in each T1 sequence (180°-T1-90°, inversion recovery). As a medium, bovine plasma of the Kraeber Company was used. The contrast medium concentrations [mmol/l] in the preparations were between 0.30 and 1.16.

[2] = Critical micelle formation concentration (CMC) by tensiometry; type: physicochemical
Description: In aqueous systems, these amphiphilic molecules show the properties that are characteristic of standard surfactants (such as, e.g., sodium dodecyl sulfate, SDS). Thus, they reduce the surface tension of the water. By tensiometry, the so-called CMC (critical micelle formation concentration in mol/l) can be determined. To this end, the surface tension is determined based on the concentration of the substance to be measured. The CMC can be calculated from the course of the surface tension (c) function that is obtained. The critical micelle formation concentration of the compounds according to the invention should be <10^−3 mol/l, preferably <10^−4 mol/l.
(§1) Both the determination of CMC and the photon correlation spectroscopy are described in H.-D. Dorfler, “Grenzflächen- and Kolloidchemie [Interface and Colloid Chemistry],” Weinheim, New York, Basel, Cambridge, Tokyo, VSH 1994.

[3] = Hydrodynamic micelle diameter 2 Rh by photon-correlation spectroscopy; type: physicochemical
Source text: The amphiphilic compounds according to the invention are combined in solution and are present as aggregates. The size (2 Rh) of such aggregates (e.g., micelles, rods, oblates, etc.) can be determined with the aid of photon-correlation spectroscopy (PCS).
As a second criterion for preferably usable metal complexes, therefore, the hydrodynamic micelle diameter 2 Rh, which must be >1 nm, is used. Those perfluoroalkyl-containing metal complexes, whose 2 Rh≧3 nm, quite especially preferably >4 nm, are especially suitable according to the invention.
as §1

[4] = test system: amyloid plaques; assay: MRT visualization of Alzheimer lesions after intravenous administration in APP-23 mice; type: in vivo; conditions: 0.5 mmol of Gd/kg i.v., up to 60 minutes after administration, 7T, localization confirmed by Puchtler's Congo red stain
Description: MRT Visualization of Alzheimer Lesions After Intravenous Administration of Contrast Medium in APP-23 Mice
The images of FIG. 1 show MR images of the brain before as well as up to 60 minutes after intravenous administration of 0.5 mmol of Gd/kg of body weight of metal complex 13 (MK13) in APP-23 mice (mice with genetically-induced Alzheimer's disease). […] The localization of the amyloid-containing structures was confirmed by means of Puchtler's Congo red stain. With this test, the suitability of the compounds according to the invention as in-vivo markers for amyloid plaques in the brains of mice with Alzheimer's disease could be shown.

R1 (Relaxivity) [1] | CMC (Critical Micelle Formation Concentration) [2] | 2 Rh (Hydrodynamic Micelle Diameter) [3] | Compound | MR signal in the amyloid plaques of the diseased brains (T1-weighted spin echo images) [4]
15.9 L/mmol/s | 2.5e-06 mol/L | 4.4 nm | CC(C(=O)NCC(=O)NCCCC[C@H](NC(=O)CO[C@H]1O[C@H](CO)[C@@H](O)[C@H](O)[C@@H]1O)C(=O)N1CCN(S(=O)(=O)C(F)(F)C(F)(F)C(F)(F)C(F)(F)C(F)(F)C(F)(F)C(F)(F)C(F)(F)F)CC1)N1CCN(CC(=O)[O-])CCN(CC(=O)[O-])CCN(CC(=O)[O-])CC1.[Gd+3] (stereo partly drawn) [MK 13, gadolinium complex of 6-N-[1,4,7-tris(carboxylatomethyl)-1,4,7,10-tetraazacyclododecane-10-N-(pentanoyl-3-aza-4-oxo-5-methyl-5-yl)]-2-N-[1-O-α-D-carbonylmethyl-manno-pyranose]-L-lysine-[1-(4-perfluorooctylsulfonyl)-piperazine]-amide] | strong signal increase
19.5 L/mmol/s | 0.00089 mol/L | 2.2 nm | gadolinium complex of 1,4,7-tris{1,4,7-tris(N-(carboxylatomethyl)-10-[N-1-methyl-3,6-diaza-2,5,8-trioxooctane-1,8-diyl)]-1,4,7,10-tetraazacyclododecane, Gd complex}-10-[N-2H, 2H, 4H, 4H, 5H, 5H-3-oxa-perfluoro-tridecanoyl]-1,4,7,10-tetraazacyclododecane [MK 12] | –
